These results are taken from patent US9745305B2, “Modulators of methyl modifying enzymes, compositions and uses thereof” (Constellation Pharmaceuticals, Inc., priority 2013, dated 2017).

pEC50, pIC50: −log10 of the molar value. Like-named read-outs stand apart in the source and are kept apart here.

Test [1] concerns the target Y641N EZH2 (Homo sapiens, UniProt Q15910, Y641N). Description: Assay for Y641N EZH2 (as the EZH2 assay, H3K27Me2 oligonucleosomes as substrate). As to conditions: Y641N EZH2 mutant, reconstituted H3K27Me2 oligonucleosomes as substrate. Type of test: biochemical. In a few lines:
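rPRC2 (2 nM EZH2) with 0.2 μM reconstituted H3K27Me2 biotinylated oligonucleosomes, 3.6 μM H3K27me3 peptide, 0.2 μM ^3H SAM in Tris pH 8.5; compounds (80 to 0.16 μM, 2-fold) pre-incubated 20 min, reaction 60 min, SAH/EDTA quench. Tritiated product captured on streptavidin plates, scintillation counted; IC50 from 4-parameter fit.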

The target of test [2] is EZH2 (Homo sapiens, UniProt Q15910). The test is described as follows: EZH2 Assay (3H SAM methyl transfer, rPRC2, FlashPlate). Type of test: biochemical. As to conditions: rPRC2, biotinylated oligonucleosomes, 0.2 μM 3H SAM, 2 nM EZH2. In a few lines: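 rPRC2 (2 nM EZH2) was preincubated 20 min with compound (80 to 0.16 μM, 10 points), then reacted 60 min with 0.2 μM ³H-SAM, 0.2 μM biotinylated oligonucleosomes and 3.6 μM H3K27me3 peptide at pH 8.5. Methylated product was captured on SAV FlashPlates and counted, and IC50 came from a 4-parameter fit.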

The test system of test [3] is H3K27me3 mark in Hela cells expressing wild type EZH2. The test is described as follows: H3K27me3 MSD Hela Assay. Type of test: cell-based. Particulars: read-out: H3K27me3_MSD_HeLa (EC50). The procedure:
H3K27me3 MSD Hela Assay. Trypsinized HeLa cells were counted and diluted in 10% DMEM (Life Technologies, Cat. #10569) to 5000 cells/75 μL. Seventy-five μL of cells were place in each well of a 96-well flat-bottomed plate and incubated at 37° C. for 4 hours. Twenty-five μL of test compound (at various concentrations) was added to the cells and incubation continued at 37° C. for 96 hours. Media was then removed and the cells rinsed once with ice cold PBS. Forty μL of ice-cold MSD Buffer AT (10 mM HEPES, pH 7.9, 5 mM MgCl2, 0.25M sucrose, Benzonase (1:10000), 1% Triton X-100 supplemented with fresh 1× Protease Inhibitor cocktail and 1 mM 4-(2-Aminoethyl)benzenesulfonyl fluoride hydrochloride (AEBSF)) was added to each well and the plates placed on ice for 30 minutes. Ten μL of 5M NaCl was then added to each well and incubation on ice continued for another 15 minutes. The material in each well was suspended pipetting up and down and then transferred to a new 96 well plate. The emptied wells were rinsed with 150 uL ice-cold 20 mM Tris pH 7.5, 1 mM EDTA, 1 mM EGTA, supplemented with fresh 1× Protease Inhibitor cocktail and 1 mM AEBSF (“NO salt NO detergent buffer) and transferred to the respective wells in the new plate. Three hundred μL of NO Salt NO detergent buffer was then added to each well of lysates and the plates frozen at −80° C.
On the same day, an appropriate number of MSD standard bind 96-well plates were coated with 30 μL/well of total H3 capture antibody (Millipore, Cat # MAB3422) at 1 μg/mL concentration in PBS. The antibody solution was evenly distributed first by tapping gently on the sides of the plates and then by shaking the plates for a few minutes at 1000 rpm. Antibody coated plates were stored at 4° C. overnight.
The next day the lysates are thawed to RT. The antibody coated MSD plates are washed 3× with TBS-T (Tris-buffered saline (Fisher Scientific, Cat #BP2471-1)+0.2% Tween-20). One-hundred fifty μL of 5% Blocker A in TBS-T is added to each well. The wells are covered and shaken on a shaker at RT for one hour. The Blocker A step is repeated a second time. After removing the blocker, 25 μL of cell lysate is transferred into each antibody coated well. The plates are shaken for 2 hours at RT, the lysate removed and the plates again washed with Blocker A in TBS-T. Twenty-five μL of appropriate freshly prepared antibody mix (including both primary and secondary antibodies) is added to each well and the plates shaken for 1 hour at RT.
Both H3 antibodies were obtained from Cell Signalling (Cat #s 4499 and 9733). The goat anti-rabbit antibody was obtained from Meso-Scale Discovery (Cat #R32AB-1).
The antibody mix was then removed and the wells washed with Blocker A. One hundred-fifty μL of freshly prepared 1×MSD Read Buffer (Meso-Scale Discovery; Cat #R927C-2) was then added to each well and the plates read on a MSD Sector 2400 Plate Reader.
Data was analyzed using Assay Assistant (Constellation Pharmaceuticals In-house product) and Activity Base (IDBS Ltd, Surrey, UK) template. Data files were imported to Assay Assistant and assay conditions were specified. A unique Analysis ID was created and the data files exported to Activity Base. An analysis template was created on Activity Base to measure dose-dependent inhibition of H3K27me3 mark and cell viability respectively. Readout of DMSO wells were used to normalize the data. Resulting curves were fitted using Activity base software Model 205 (IDBS Ltd, Surrey, UK). The data was checked for quality, validated and integrated in excel format using SARview (IDBS Ltd, Surrey, UK).

EZH2, sequence (Q15910 whole entry): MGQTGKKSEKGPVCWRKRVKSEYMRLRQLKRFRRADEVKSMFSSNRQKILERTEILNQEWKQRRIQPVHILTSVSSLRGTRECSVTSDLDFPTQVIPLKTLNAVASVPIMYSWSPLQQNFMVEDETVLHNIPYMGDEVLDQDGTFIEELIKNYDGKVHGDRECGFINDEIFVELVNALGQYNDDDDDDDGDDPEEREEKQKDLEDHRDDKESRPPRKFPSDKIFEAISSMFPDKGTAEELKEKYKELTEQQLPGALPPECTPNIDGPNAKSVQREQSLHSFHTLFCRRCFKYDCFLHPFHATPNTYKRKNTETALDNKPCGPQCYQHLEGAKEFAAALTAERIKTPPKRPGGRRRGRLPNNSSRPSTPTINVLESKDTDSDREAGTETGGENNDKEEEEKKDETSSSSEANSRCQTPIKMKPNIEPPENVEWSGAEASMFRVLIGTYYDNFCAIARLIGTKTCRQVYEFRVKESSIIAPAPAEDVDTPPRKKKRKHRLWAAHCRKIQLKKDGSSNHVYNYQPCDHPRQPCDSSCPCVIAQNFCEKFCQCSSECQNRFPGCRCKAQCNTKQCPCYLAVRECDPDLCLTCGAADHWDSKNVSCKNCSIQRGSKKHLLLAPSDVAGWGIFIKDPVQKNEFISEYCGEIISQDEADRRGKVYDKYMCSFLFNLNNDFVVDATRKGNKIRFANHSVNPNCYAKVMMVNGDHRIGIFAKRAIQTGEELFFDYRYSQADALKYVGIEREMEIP
EZH2, sequence (O75530 whole entry partner): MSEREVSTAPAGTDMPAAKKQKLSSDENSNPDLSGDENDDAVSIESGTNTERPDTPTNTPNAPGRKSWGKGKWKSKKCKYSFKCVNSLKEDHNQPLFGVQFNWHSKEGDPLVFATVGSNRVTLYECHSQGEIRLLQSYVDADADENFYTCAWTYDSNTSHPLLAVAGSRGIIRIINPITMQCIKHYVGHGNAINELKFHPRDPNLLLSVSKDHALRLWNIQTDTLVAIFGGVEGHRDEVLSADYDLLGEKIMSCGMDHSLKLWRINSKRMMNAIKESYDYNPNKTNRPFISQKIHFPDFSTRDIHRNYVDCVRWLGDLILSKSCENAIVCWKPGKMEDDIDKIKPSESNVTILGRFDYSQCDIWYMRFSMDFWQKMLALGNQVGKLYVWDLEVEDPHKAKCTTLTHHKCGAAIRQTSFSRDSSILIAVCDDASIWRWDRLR
EZH2, sequence (Q15022 whole entry partner): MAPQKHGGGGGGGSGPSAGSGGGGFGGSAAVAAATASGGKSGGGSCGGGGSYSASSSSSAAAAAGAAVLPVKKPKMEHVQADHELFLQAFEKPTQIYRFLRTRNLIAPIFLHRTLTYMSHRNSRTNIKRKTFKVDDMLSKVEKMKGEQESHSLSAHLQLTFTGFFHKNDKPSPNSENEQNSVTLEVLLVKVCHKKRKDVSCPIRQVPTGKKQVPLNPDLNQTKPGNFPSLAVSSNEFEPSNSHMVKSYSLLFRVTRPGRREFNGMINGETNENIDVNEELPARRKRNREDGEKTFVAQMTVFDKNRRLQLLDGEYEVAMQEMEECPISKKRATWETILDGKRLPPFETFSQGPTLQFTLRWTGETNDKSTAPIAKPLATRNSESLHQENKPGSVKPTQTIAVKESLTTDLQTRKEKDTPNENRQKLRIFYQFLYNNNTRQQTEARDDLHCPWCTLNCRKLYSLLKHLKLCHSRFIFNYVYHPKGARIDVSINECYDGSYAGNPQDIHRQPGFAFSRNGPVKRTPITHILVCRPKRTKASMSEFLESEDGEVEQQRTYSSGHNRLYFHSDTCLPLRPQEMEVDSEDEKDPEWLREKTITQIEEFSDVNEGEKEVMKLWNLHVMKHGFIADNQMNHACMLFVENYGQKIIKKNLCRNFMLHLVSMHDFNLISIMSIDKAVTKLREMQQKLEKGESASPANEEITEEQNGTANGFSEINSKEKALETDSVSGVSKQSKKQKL
Y641N EZH2, sequence (Q15910 whole entry Y641N): as the sequence (Q15910 whole entry) above, with Y641N counted along it
Y641N EZH2, sequence (O75530 whole entry partner): as the sequence (O75530 whole entry partner) above
Y641N EZH2, sequence (Q15022 whole entry partner): as the sequence (Q15022 whole entry partner) above

On to `COc1cc(C)[nH]c(=O)c1CNC(=O)c1c(C)c(C(C)NS(C)(=O)=O)n2ncccc12` (racemic) [Compound 112, (±)-N-((4-methoxy-6-methyl-2-oxo-1,2-dihydropyridin-3-yl)methyl)-6-methyl-7-(1-(methylsulfonamido)ethyl)pyrrolo[1,2-b]pyridazine-5-carboxamide], for which the negative logarithm of the IC50 (pIC50) is 6.00 to 7.00 in test [1] and > 7.00 in test [2]. In addition, the pEC50 in test [3] (Homo sapiens, HeLa, 96 h) is 5.00 to 5.70.
In the same order, the values of `COc1cc(C)[nH]c(=O)c1CNC(=O)c1c(C)c(C(C)c2cccnc2)n2ncccc12` (racemic) [Compound 113, (±)-N-((4-methoxy-6-methyl-2-oxo-1,2-dihydropyridin-3-yl)methyl)-6-methyl-7-(1-(pyridin-3-yl)ethyl)pyrrolo[1,2-b]pyridazine-5-carboxamide] are > 7.00, > 7.00 and > 6.40.
In the case of `CCN(C(C)c1c(C)c(C(=O)NCc2c(OC)cc(C)[nH]c2=O)c2cccnn12)S(C)(=O)=O` (single isomer, unassigned) [Compound 107, (R or S)-7-(1-(N-ethylmethylsulfonamido)ethyl)-N-((4-methoxy-6-methyl-2-oxo-1,2-dihydropyridin-3-yl)methyl)-6-methylpyrrolo[1,2-b]pyridazine-5-carboxamide], the figures for the negative logarithm of the IC50 (pIC50) in test [1] and in test [2] were 6.00 to 7.00 and > 7.00, respectively. The pEC50 in test [3] (96 hours) is 5.00 to 5.70.
Taken in the same sequence, the figures for `CCN(C(C)c1c(C)c(C(=O)NCc2c(OC)cc(C)[nH]c2=O)c2cccnn12)S(C)(=O)=O` (single isomer, unassigned) [Compound 108, (R or S)-7-(1-(N-ethylmethylsulfonamido)ethyl)-N-((4-methoxy-6-methyl-2-oxo-1,2-dihydropyridin-3-yl)methyl)-6-methylpyrrolo[1,2-b]pyridazine-5-carboxamide] were 6.00 to 7.00, > 7.00 and 5.70 to 6.40.
Turning to `COc1cc(C)[nH]c(=O)c1CNC(=O)c1c(C)c(C(C)c2ccn(C)c(=O)c2)n2ncccc12` (stereo not drawn) [Compound 110, N-((4-methoxy-6-methyl-2-oxo-1,2-dihydropyridin-3-yl)methyl)-6-methyl-7-(1-(1-methyl-2-oxo-1,2-dihydropyridin-4-yl)ethyl)pyrrolo[1,2-b]pyridazine-5-carboxamide], the negative logarithm of the IC50 (pIC50) in test [1] was 6.00 to 7.00; in test [2], > 7.00. Moreover, in test [3] (Homo sapiens, HeLa, 96 h), the negative logarithm of the EC50 (pEC50) was 5.00 to 5.70.
For the compound `COc1cc(C)[nH]c(=O)c1CNC(=O)c1c(C)c(-c2c(C)noc2C)n2ncccc12` [Compound 114, 7-(3,5-dimethylisoxazol-4-yl)-N-((4-methoxy-6-methyl-2-oxo-1,2-dihydropyridin-3-yl)methyl)-6-methylpyrrolo[1,2-b]pyridazine-5-carboxamide], the pIC50 in test [1] and in test [2] was > 7.00 throughout. Moreover, the pEC50 in test [3] (Homo sapiens, HeLa, 96 h) is > 6.40.
